Data: US11834446B2, “Methods and compositions useful in treating cancer and reducing Wnt mediated effects in a cell” (StemSynergy Therapeutics, Inc., priority 2009, dated 2023)

test system: Wnt reporter (TCF/LEF1 promoter) in HEK STF293 cells; assay: HEK STF293 Wnt reporter (luciferase) assay; assay type: cell-based; settings: Homo sapiens, STF/293, Wnt3a-conditioned media, Steady Glo normalized to Cell Titer
Procedure: Screening with STF293 and SW480STF. HEK STF293 cells are seeded at approximately 25,000-30,000 cells/well in a 96-well (100 uL volume). On the first day, Wnt3a-conditioned media (1:1) will be added along with diluted compounds (1:100). For example, for 100 ul of STF293 cells, 100 ul of Wnt3a-conditioned media and 2 ul of drug will be added to each well. The final concentrations should therefore be 100 μM, 30 μM, 10 μM, 3 μM, 1 μM, 300 nM, 100 nM, 30 nM, 10 nM, 3 nM, 1 nM, and 0.3 nM. On the second day, the media is removed and 75 ul of Passive Lysis Buffer (Promega) is added to each well. The plate will be shaken at 130 rpm for 15 minutes. For the Steady Glo assay, 45 ul of the lysis is removed and added to a white 96-well plate containing 45 uL/well of Steady Glo solution (Promega). For the Cell Titer assay, 25 ul of the lysis is transferred to a white 96-well plate containing 25 ul/well of Cell Titer solution (Promega). Both Steady Glo and Cell Titer assays will be read with a luminescence plate reader. When determining EC50, the Steady Glo values will be divided by the Cell Titer values to normalize for cell number and the resulting values plotted in a dose-response curve.
Experimental. All compounds were tested using the human cell line HEK STF293. This cell line carries a Wnt reporter (TCF/LEF1 promoter), which drives expression of the firefly luciferase protein. The level of Wnt activity is directly correlated with the level of luciferase activity (determined using a simple assay). Compounds that inhibit Wnt signaling by reducing luciferase activity in these two cell lines are further tested biochemically.
Compounds were prepared as 10 mM stocks for each compound in DMSO. Dilutions were prepared in a 96-well plate in DMSO. The stock dilutions are as follows: 10 mM, 1 mM, […]. Plates were sealed and stored at −20 C.
HEK STF293 cells were seeded at approximately 25,000-30,000 cells/well in a 96-well (100 uL volume). On the first day, Wnt3a-conditioned media (1:1) were added along with diluted compounds (1:100). For example, for 100 ul of STF293 cells, 100 ul of Wnt3a-conditioned media and 2 ul of drug was added to each well. The final concentrations should therefore be 100 uM, 10 uM, 1 uM, 100 nM, 10 nM, and 1 nM. On the second day, the media is removed and 75 ul of Passive Lysis Buffer (Promega) is added to each well. The plate is shaken at 130 rpm for 15 minutes. For the Steady Glo assay, 45 ul of the lysis is removed and added to a white 96-well plate containing 45 uL/well of Steady Glo solution (Promega). For the Cell Titer assay, 25 ul of the lysis is transferred to a white 96-well plate containing 25 ul/well of Cell Titer solution (Promega). Both Steady Glo and Cell Titer assays were read with a luminescence plate reader. When determining EC50, the Steady Glo values were divided by the Cell Titer values to normalize for cell number.

SMILES	EC50 [µM]
Cc1nn(Cc2ccccc2)c(C)c1NC(=O)c1cc2n(n1)C(C(F)(F)F)CC(c1ccccc1)N2 (stereo not drawn)	≤ 0.1
Cc1nn(Cc2ccc(F)cc2)c(C)c1NC(=O)c1cc(-c2ccc(F)cc2)on1	> 0.1
Cc1nn(Cc2ccccc2)c(C)c1NC(=O)c1cc(-c2ccc(Br)cc2)on1	≤ 0.1
COc1ccccc1-c1cc(C(=O)Nc2c(C)nn(Cc3ccc(F)cc3)c2C)no1	> 0.1
O=C(Nc1ccc(F)cc1)c1ccc(S(=O)(=O)N2CCc3ccccc32)cc1	> 0.1
Cc1ccc(NS(=O)(=O)c2ccc(NC(=O)c3n[nH]c4c3CCc3ccccc3-4)cc2)cc1	> 0.1
Cc1ccc(C)c(NS(=O)(=O)c2ccc(NC(=O)c3n[nH]c4c3CCc3ccccc3-4)cc2)c1	> 0.1
COc1cc2nc(NC(=O)c3ccc(S(=O)(=O)N(C)c4ccccc4)cc3)sc2cc1OC	> 0.1
COc1cc2nc(NC(=O)c3ccc(S(=O)(=O)N4CCc5ccccc54)cc3)sc2cc1OC	> 0.1
O=C(Nc1nc(-c2ccccn2)cs1)c1ccc(S(=O)(=O)N2CCCc3ccccc32)cc1	≤ 0.1
Cc1sc(NC(=O)c2ccc(S(=O)(=O)N3CCc4ccccc43)cc2)nc1-c1ccccc1	> 0.1
NC(=O)c1ccccc1NC(=O)c1ccc(S(=O)(=O)Nc2ccccc2)cc1	> 0.1
